The values that follow come from patent publication US7750017B2, “Heterocycles” (Bayer Schering Pharma Aktiengesellschaft, priority 2004, dated 2010).

Bounds are passed on as bounds.

The subject of test [1] is A431 cells [human epidermoid carcinoma, overexpressing HER1 (EGFR, ErbB1)]. As to the kind of experiment: In vitro tumor cell proliferation assay (Cell Titer-Glo luminescent cell viability), A431 cells. It counts as cell-based. As to conditions: A-431, 72 h, 72 hours of drug exposure, Cell Titer-Glo readout, read-out: IC50, anti-proliferative activity in A431 cells.
The test system of test [2] is BT474 [human breast carcinoma, overexpressing HER2 (ErbB2)]. Put plainly: In vitro tumor cell proliferation assay (Cell Titer-Glo luminescent cell viability), BT474 cells. In kind it is cell-based. The settings on record: BT-474, 72 h, 72 hours of drug exposure, Cell Titer-Glo readout, read-out: IC50, anti-proliferative activity in BT474 cells.

Take `CN(C)[C@H]1CCN(C(=O)Cc2ccc3c(c2)sc2ncnc(Nc4ccc(OCc5cscn5)c(Cl)c4)c23)C1` [Example 143, N-[3-chloro-4-(1,3-thiazol-4-ylmethoxy)phenyl]-7-{2-[(3S)-3-(dimethylamino)pyrrolidin-1-yl]-2-oxoethyl}[1]benzothieno[2,3-d] pyrimidin-4-amine]: the values for the half-maximal inhibitory concentration (IC50) in test [1] and in test [2] were not above 5 µM and not above 0.5 µM, respectively.

`O=C(Cc1ccc2c(c1)sc1ncnc(Nc3ccc(OCc4cscn4)c(Cl)c3)c12)NN1CCOCC1` [Example 144, 2-(4-{[3-chloro-4-(1,3-thiazol-4-ylmethoxy)phenyl]amino}[1]benzothieno[2,3-d]pyrimidin-7-yl)-N-morpholin-4-ylacetamide]: the IC50 is not above 50 µM in test [1] and not above 5 µM in test [2].

For the molecule `O=C(Cc1ccc2c(c1)sc1ncnc(Nc3ccc(OCc4cscn4)c(Cl)c3)c12)NCCOCCO` [Example 145, 2-(4-{[3-chloro-4-(1,3-thiazol-4-ylmethoxy)phenyl]amino}[1]benzothieno[2,3-d]pyrimidin-7-yl)-N-[2-(2-hydroxyethoxy)ethyl] acetamide], the half-inhibitory concentration (IC50) in test [1] was not above 50 µM; in test [2], not above 5 µM.

For `CCN1CCN(CCNC(=O)Cc2ccc3c(c2)sc2ncnc(Nc4ccc(OCc5cscn5)c(Cl)c4)c23)CC1` [Example 146, 2-(4-{[3-chloro-4-(1,3-thiazol-4-ylmethoxy)phenyl]amino}[1]benzothieno[2,3-d]pyrimidin-7-yl)-N-[2-(4-ethylpiperazin-1-yl)ethyl] acetamide], the 50% inhibitory concentration (IC50) is not above 50 µM in test [1] and not above 0.5 µM in test [2].
